Patent US20080274213A1, “Drug for Ameliorating Male Climacteric Disorders” (WAKUNAGA PHARMACEUTICAL CO., LTD., priority 2004, published 2008)

Tested on: restraint stress-loaded ddY male mice
Test: Test on inhibition of reduction in blood testosterone concentration (restraint stress-loaded mice)
Format: in vivo
Conditions: tested likewise, dose of the components not given
Method: The Codonopsis lanceolata extract obtained in Example 1 was used to investigate inhibitory effect on reduction in blood testosterone concentration caused by aging and stress according to the following procedures: seven-month-old ddY male mice (10 mice per group) were orally given 1 g/kg of the test substance once a day over 2 weeks. On the last administration day, the mice were loaded with restraint stress after 1 hour of test substance administration. The restraint stress loading was performed by wrapping soft wire nets around the mouse bodies and allowing the mice to abstain from food and drink for 16 hours (17:00 to 9:00). Immediately after the termination of the loading, their blood testosterone concentrations were measured. A significant difference test used was the Student's t-test.

| Compound | inhibitory effect on reduction in blood testosterone concentration (isolated components) |
| --- | --- |
| CC1OC(OC2C(OC(=O)[C@]34CCC(C)(C)C[C@@]3(C)C3=CCC5[C@@]6(C)CC[C@H](OC7OC(C(=O)O)C(O)C(O)C7O)C(C)(C)C6CC[C@@]5(C)[C@]3(C)C[C@H]4O)OCC(O)C2O)C(O)C(O)C1OC1OCC(O)C(OC2OCC(O)C(O)C2O)C1O (some centres unmarked) [lancemaside-A] | the inhibitory effect was also observed |
| tangshenoside I | the inhibitory effect was also observed |
